Patent publication US20090170862A1, “USE OF C-KIT INHIBITORS FOR THE TREATMENT OF MYELOMA” (priority 2001, published 2009)

Tests used:
MM.1S cells [1] = assay: Transwell cell migration assay (modified Boyden chamber); format: cell-based, human
Method: MM.1S cells are exposed to PTK787 at concentrations 0, 1, 5 and 10 μM for 4 h and then added to the upper chamber of a transwell system. To the lower wells are added either VEGF (□, 10 ng/ml) or CD40 (Δ, 10 ng/ml), and cells are allowed to migrate to the lower chamber over a 5 h period. A lower chamber without any VEGF or CD40 (∘) serves as a control. Migrated cells are counted on a Beckman Coulter counter, and a migration index is obtained as described in Example 2, below. Experiments are performed in triplicate, and standard deviation bars are shown.
The migration assay is performed in a modified Boyden chamber system; using a 24 well plate with 8 μm pore size inserts. Prior to the assay, the upper and lower chambers are pre-coated with fibronectin (10 μg/ml). MM.1S cells are starved in 2% RPMI media for 6 hours prior to assay, then treated with drug or DMSO control for 4 h. MM cells (2×10^6 cells/ml) are then placed into the upper chamber of the transwell system. To the lower chamber is added RPMI (1% FBS), 0 or 10 ng/ml of VEGF165, or an activating MoAb to CD40 (10 ng/ml). The plates are then incubated at 37° C. for 6 h, and then cells in the lower chamber are harvested. The number of live migrated cells is gated and measured using a Beckman Coulter counter. A migration index is calculated to compare migration of cells relative to control. The migration index is defined herein as the percentage of live migrated cells in the sample (with or without drug, and ±VEGF), divided by the percentage of live migrated cells in the control (no drug, no VEGF).

MM cell lines = assay: Proliferation of MM cell lines and patient tumor cells ([3H]-thymidine uptake); format: cell-based, human
Method: FIGS. 2 to 4. Dose-related effect of PTK787 on proliferation of MM cell lines and patient tumor cells. MM.1S, MM.1R, RPMI 8226, patient PCL cells, patient MM cells and HUVE cells were incubated in the presence of 0 (□), 1 (▪), 5 ( ? ), 10 ( ? ) and 20 ( ? ) μM of PTK787. In addition, HUVE cells are also exposed to 0.01 ( ? ), and 0.1 ( ? ) μM of drug. Proliferation is measured as a percentage of 3H-dT uptake relative to standard. The experiments are performed in triplicate, and standard deviation bars are shown.
RPMI 8226 and U266 human MM cell lines are obtained from the American Type Culture Collection (ATCC) of Rockville, Md. Patient derived MM cells are purified from patient BM samples, as described by Y. T. Tai, G. Teoh, Y. Shima, et al in J. Immunol. Methods 235:11, 2000. All human MM cell lines are cultured in RPMI-1640 media (Sigma Chemical, St. Louis, Mo.), containing 10% fetal bovine serum (FBS), 2 mmol/L L-glutamine (L-glut, GIBCO, Grand Island, N.Y.), 100 U/mL penicillin and […] streptomycin (P/S, GIBCO). MM patient cells are ≧95% CD38+, CD45RA−. Bone marrow stromal cells (BMSCs) are prepared from aspirates of MM patients as well as healthy donors as described by D. Gupta, S. Treon, Y. Shima, et al in Leukemia, 2001 and S. Gartner and H. S. Kaplan in Proc. Natl. Acad. Sci. USA 77:4756, 1980. […]

MM.1S cells [2] = assay: Proliferation of MM cells in a modified Boyden chamber transwell co-culture system with BMSCs; format: cell-based, human; details: 5 μM; transwell co-culture with BMSCs without contact; 48 h; p<0.001
Method: Proliferation is measured in a modified Boyden chamber transwell system, using 24-well plates with a […] pore size inserts (Costar). BMSCs (4×10^4 cells/well) are plated in the lower chamber, starved, and incubated in drug as described above. MM cells (20×10^4 cells/ml) are then placed in the upper chamber (insert), and [^3H]-thymidine uptake in the individual chambers is measured at 48 h as described above.
MM.1 S cells are placed in the upper chamber of a transwell co-culture system in order to preclude direct contact between MM cells and BMSCs, but nonetheless allow for diffusion of humoral factors. Despite the lack of contact between the two cell types, uptake of [^3H]-dT by MM.1S cells incubated with BMSCs is increased by 2.2-fold (p<0.0001) at 48 h. […] When PTK787 (5 μM) is used in this co-culture system, it reduces proliferation of MM.1S cells by 62% (p<0.001).

MM.1S cells [3] = assay: Survival / cell death of MM.1S cells in the presence of dexamethasone and IL-6; format: cell-based, human; details: for inhibition of survival of MM.1S cells: 24 h, dexamethasone 0.1 or 1 μM, PTK787 5 μM, p<0.001
Method: MM.1S cells are incubated for 24 h in 1% RPMI, in the presence or absence of dexamethasone (0.1 or 1 μM), PTK787 (5 μM), IL-6 (20 and 100 ng/ml) and VEGF (50 ng/ml).

BMSCs = assay: Viability of BMSCs (trypan blue exclusion and MTS assay); format: cell-based, human; details: with PTK787 in the co-culture system
MM.1S cells [4] = assay: Proliferation of MM.1S cells in an adhesion co-culture system with BMSCs; format: cell-based, human; details: 5 μM, compared to controls, p<0.0001
Method: (§1) Co-culturing of MM.1S cells or patient PCL cells with BMSCs increases growth of tumor cells by 1.8 to 2.8-fold, compared to the combination of BMSCs and MM cells alone. Addition of PTK787 (5 μM) to this co-culture system decreases proliferation of both MM.1S cells and patient PCL cells by 75% (p<0.0001), when compared to controls. These effects are observed whether the BMSCs are derived from a normal donor or patient BM.

patient PCL cells = assay: Proliferation of patient PCL cells in an adhesion co-culture system with BMSCs; format: cell-based, human; details: 5 μM, compared to controls, p<0.0001
Method: as §1

MM.1S cells [5] = details: for inhibition of proliferation of MM.1S cells: 24 h, dexamethasone 0.1 or 1 μM, PTK787 5 μM; for inhibition of proliferation of MM.1S cells / inhibition of MM.1S proliferation with IL-6: p<0.001; for inhibition of MM.1S proliferation without IL-6: comparison arm
Method: MM cells are first starved for 12 h in RPMI-1640 media containing 2% fetal bovine serum, and then plated into 96-well microtiter plates (Costar, Cambridge, Mass.), in the presence of drug or DMSO control. Experiments are also performed in the presence or absence of VEGF165 (R and D Systems). Proliferation is measured by the incorporation of [^3H]-thymidine (NEN Products, Boston, Mass.). Specifically, cells are pulsed with [^3H]-thymidine (0.5 μCi/well) for the last 6 h of 48 h cultures, harvested onto glass filters with an automatic cell harvester (Cambridge Technology, Cambridge, Mass.), and counted using a LKB Betaplate scintillation counter (Wallac, Gaithersburg, Md.). Measurement of cell viability is performed colorimetrically by MTS assay, utilizing the CellTiter96 AQueous One Solution Reagent (Promega, Madison, Wis.). Cells are exposed to the MTS for the last 2 h of 48 h cultures, and absorbance is measured using an ELISA plate reader (Molecular Devices Corp., Sunnyvale, Calif.) at OD of 570 nm.

[6] = system: human carcinomas (A431, Ls174T, HT-29, PC-3); details: Cancer Res. 60: 2178, 2000, cited from earlier work
[7] = system: A431, Ls174T, HT-29, PC-3 tumor cells; details: cited from earlier work
IL-6 = IL-6 levels in supernatants of MM.1S/BMSC co-culture (ELISA); details: MM.1S/BMSC co-culture supernatants, 48 h
Method: Cytokine levels are measured in supernatants from the co-culture system described above. VEGF and IL-6 concentrations are measured using commercially available ELISA kits (R&D Systems). Statistical significance of differences is determined using unpaired Student's t-test. The minimal level of significance is considered as p<0.05.
Supernatants obtained from a co-culture of MM.1S cells with BMSCs are isolated at 48 h, and IL-6 levels are measured using ELISA assay.

| SMILES | VEGF-induced migration of MM.1S cells (MM.1S cells [1]; 1 μM PTK787, VEGF 10 ng/ml, p=0.002) | baseline and VEGF-induced migration of MM.1S cells (MM.1S cells [1]; 5 and 10 μM PTK787) | migration of MM.1S cells induced by CD40 (MM.1S cells [1]; activating MoAb to CD40 10 ng/ml) | proliferation of MM.1S, Dex-resistant MM.1R, RPMI, patient PCL and patient MM cells (MM cell lines; 0-20 μM PTK787, 3H-dT uptake) | proliferation in MM cell lines with or without VEGF (MM cell lines; PTK787 (1 to 5 μM), presence or absence of VEGF) | reduction of proliferation of MM.1S cells (MM.1S cells [2]) | inhibition of survival of MM.1S cells (MM.1S cells [3]) | cell death of MM.1S cells without IL-6 (MM.1S cells [3]; PTK787 alone, second value of '54% vs. 65%') | cell death of MM.1S cells with IL-6 (MM.1S cells [3]; PTK787 plus IL-6, first value of '54% vs. 65%', p<0.01) | viability of BMSCs (BMSCs) | decrease of proliferation of MM.1S cells (MM.1S cells [4]) | decrease of proliferation of patient PCL cells (patient PCL cells) | inhibition of proliferation of MM.1S cells (MM.1S cells [5]) | inhibition of MM.1S proliferation with IL-6 (MM.1S cells [5]) | inhibition of MM.1S proliferation without IL-6 (MM.1S cells [5]) | growth of human carcinomas transplanted orthotopically into mice ([6]; A431, Ls174T, HT-29, PC-3) | vessel density in the tumor tissues [6] | direct effect on tumor cells [7] | decrease of IL-6 concentrations (IL-6) |
| --- | --- | --- | --- | --- | --- | --- | --- | --- | --- | --- | --- | --- | --- | --- | --- | --- | --- | --- | --- |
| Clc1ccc(Nc2nnc(Cc3ccncc3)c3ccccc23)cc1 [PTK787] | reduced to baseline levels | further reduces | does not significantly inhibit | decreases, in a dose dependent manner | abrogates proliferation both in the presence or absence of VEGF | 62% | 46% | 65% | 54% | 95% | 75% | 75% | 35% | 64.7% | 39.3% | inhibits the growth | does reduce vessel density | does not have a direct effect | 70% |
| C[C@@H]1C[C@H]2[C@@H]3CCC4=CC(=O)C=C[C@]4(C)[C@@]3(F)[C@@H](O)C[C@]2(C)[C@@]1(O)C(=O)CO [Dexamethasone, dexamethasone, reference compound] |  |  |  |  |  |  | 83% |  |  |  |  |  | 58% | 16% | 70.5% |  |  |  |  |
